“Also recorded” adds a separate entry of the source.
What was measured:
[1] = system: hyperphosphorylation of progranulin at Ser81 in lymphoblastoid cell lines (LCL); test: Kinase inhibitors added to cultured lymphoblastoid cell lines (LCL), progranulin isoforms read by IEF and immunoblot; format: cell-based, human; details: for hyperphosphorylated progranulin isoform in IEF: LCL culture
Method: Lymphoblastoid cell lines (LCLs) were established by infection of PBMCs with EBV as described before.
(§1) Isoelectric focusing was performed as described before. In short, whole blood cell extracts or extracts of LCLs were washed and treated with lysis buffer (8 M urea, 0.1 M NaH2PO4, 0.01 M Tris HCl, 0.1% NP40). Following to this, isoelectric focusing was performed (pH 3-10, Invitrogen) according to the manufacturer's protocol (1 hour 100 V, 1 hour 200 V, and 30 minutes 500 V). After semi-dry blotting on PVDF membranes (450 mA, 24V, 1 hour), patient's plasma was used for immunodetection of progranulin from whole blood cell lysates and murine anti-FLAG antibody (Sigma) was used at a dilution of 1:2,000 for immunodetection of progranulin from LCL lysates. These LCLs had been previously transfected with FLAG-tagged progranulin in pRTS. The membrane was blocked in TST/milk buffer (10% milk in 10 mM Tris/HCl, pH 7.5, 150 mM NaCl, 0.1% [v/v] Tween 20) overnight, washed, and incubated for 1 hour with plasma in TST or murine anti-FLAG-antibody. After 3 washings in TST, the membranes were incubated for 1 hour at room temperature with PDX-labeled goat anti-human IgG Ab (Dianova) diluted 1:5,000 or PDX-labeled anti-mouse IgG Ab (Biorad) in TST, subsequently washed in TST followed by ECL development. To perform IEF on different cell fractions, PBMCs and granulocytes were isolated by density double gradient centrifugation (Histopaque-1077 and -1119, Sigma). Monocytes, B-cells and T-cells were sorted with CD14, CD19 and CD3. Mucosa cells were obtained by swab from the oral cavities of patients and controls.
Stable transfected lymphoblastoid cell lines were cultured at 2×10e6 cells/ml in the presence of selected inhibitory compounds as indicated to narrow down the number of candidate kinases responsible for hyperphosphorylation at Ser81. […] After 3 days, cells were removed and analyzed by isoelectric focusing (IEF) and immunoblot detection. After the identification of PKC as the responsible kinase for the phosphorylation of serine 81, the same procedure was repeated with other selected inhibitory compounds to identify the subclass of PKC. The selected inhibitory compounds for the identification of the PKC subunit were: Staurosporin at […], 15 nM and 30 nM. Bisindolylmaleimide I (BIM I) at 1 nM, 5 nM, 10 nM and 20 nM, Rottlerin at 5 μM, 10 μM, 40 μM and 100 μM and the PKCβ-inhibitor at a concentration of 5 nm specifically for PKCβ-II and at a concentration of 21 nm for PKCβ-I and PKCβ-II.

[2] = system: phosphatase for progranulin's phosphorylated Ser81 in LCLs; test: Phosphatase inhibitors added to cultured LCLs, progranulin isoforms read by IEF; format: cell-based, human
Description: FIG. 14 a) to b): Identification of PP1 as the responsible phosphatase. a) Phosphatase inhibitors at specific concentrations or DMSO only as control were administrated for three days to cultured LCLs derived from a healthy donor and from a patient with hyperphosphorylated progranulin. Subsequently LCL lysates were subjected to IEF. Lanes (1) and (4) show the IEF of the LCL from a healthy control and a progranulin-antibody positive patient cultured without phosphatase inhibitors. […] The further lanes show the administration of following phosphatase inhibitors to LCL-lysates from healthy controls (top) and from progranulin-antibody positive patients (bottom): 1) DMSO, 2) of serine/threonine inhibitor cocktail 1, 3) of NIPP1 at 10 pM, 4) of okadaic acid at 10 nM, 5) of okadaic acid at 0.1 nM and of okadaic acid at 500 nM.
as §1
To identify the responsible phosphatase for progranulin's phosphorylated Ser81 a panel of different phosphatase inhibitors was administered at specific concentrations to the cultured LCLs, which had been obtained from progranulin-antibody positive patients and from healthy controls with the aim to inhibit particular groups of phosphatases. This panel consisted of serine/threonine phosphatase inhibitor cocktail, tyrosine phosphatase inhibitor, okadaic acid at 500 nM, 10 nM, 0.1 nM and NIPP1 at 10 pM. Following to this, IEFs of the lysates of these LCLs were performed to check for possible differences in the phosphorylation state.

[3] = in vivo; cited from earlier work
[4] = system: hyperphosphorylated progranulin isoform; test: Treatment of sera / cell lysates with alkaline phosphatase before IEF; format: biochemical, human; details: samples of progranulin-antibody positive patients
Method: Treatment of whole blood cell lysates or LCL lysates with alkaline phosphatase was conducted in principal as previously described. FastAP thermo sensitive alkaline phosphatase (Fermentas) was used. In short LCLs were washed 3 times with PBS. The lysis was performed in a buffer of 10 mM Tris HCl pH 8 for 1 h at 4° C. Following to this the supplied FastAP-Buffer (10×Fast AP-Buffer: 100 mM Tris-HCl, pH 8.0, 50 mM MgCl2, 1 M KCl, 0.2% Triton X-100 and 1 mg/ml BSA) was added to the cell lysate. For 0.1 mg/ml lysed protein extract, 10 units of FastAP were utilized. After 1 h at 37° C., the alkaline phosphatase reaction was stopped by the addition of 50 mM EDTA. Equal volumes of sample and loading buffer were mixed, followed by IEF and immuno-detection.

## CN(C)CCCn1cc(C2=C(c3c[nH]c4ccccc34)C(=O)NC2=O)c2ccccc21 [Bisindolylmaleimide I]
[1]; inhibitor at 1 nM
  hyperphosphorylated progranulin isoform in IEF: didn't inhibit the hyperphosphorylation
[1]; inhibitor at 5 nM
  hyperphosphorylated progranulin isoform in IEF: didn't inhibit the hyperphosphorylation
[1]; inhibitor at 10 nM
  hyperphosphorylated progranulin isoform in IEF: didn't inhibit the hyperphosphorylation
[1]; inhibitor at 20 nM
  hyperphosphorylated progranulin isoform in IEF: the hyper-phosphorylated isoform disappeared
[1]; inhibitor at 20 nM, listed as Bis-indolyl-maleimide I
  hyperphosphorylated progranulin isoform in IEF: led to the disappearance of the hyperphosphorylated isoform

## O=c1oc2c(O)c(O)cc3c(=O)oc4c(O)c(O)cc1c4c23 [Ellagic Acid]
[1]; 10 pM, LCL of progranulin-antibody positive patients and of healthy controls
  electrical charge of the normal progranulin isoform in IEF: slight shift of the band of the normal progranulin isoform towards an electronically less negatively charged isoform
[1]; 50 μM, LCL of a healthy control
  electrical charge of the normal progranulin isoform in IEF: change in the electrical charge of “normal” progranulin appeared as well
[1]; 50 μM, LCL of a progranulin-antibody positive patient
  electrical charge of the normal progranulin isoform in IEF: change in the electrical charge
[1]; inhibitor at 50 μM
  hyperphosphorylated progranulin isoform in IEF: disappearance of the hyperphosphorylated progranulin isoform

## O=C1NC(=O)C(c2cn(CCCn3ccnc3)c3ccccc23)=C1Nc1ccccc1 [PKCβ-inhibitor]
[1]; inhibitor at 21 nM
  hyperphosphorylated progranulin isoform in IEF: led to the disappearance of the hyperphosphorylated isoform

## CC(=O)c1c(O)c(C)c(O)c(Cc2c(O)c3c(c(C(=O)/C=C/c4ccccc4)c2O)OC(C)(C)C=C3)c1O [Rottlerin]
[1]; inhibitor at 5 μM
  hyperphosphorylated progranulin isoform in IEF: could not inhibit the phosphorylation of Ser81
[1]; inhibitor at 10 μM
  hyperphosphorylated progranulin isoform in IEF: could not inhibit the phosphorylation of Ser81
[1]; inhibitor at 40 μM
  hyperphosphorylated progranulin isoform in IEF: could not inhibit the phosphorylation of Ser81
[1]; inhibitor at 100 μM
  hyperphosphorylated progranulin isoform in IEF: could not inhibit the phosphorylation of Ser81
[1]; inhibitor at different concentrations
  hyperphosphorylated progranulin isoform in IEF: not possible to inhibit the responsible kinase

## CN[C@@H]1C[C@H]2O[C@@](C)([C@@H]1OC)n1c3ccccc3c3c4c(c5c6ccccc6n2c5c31)C(=O)NC4 [Staurosporin]
[1]; 2.5 pM, LCL of progranulin-antibody positive patients and of healthy controls
  electrical charge of the normal progranulin isoform in IEF: slight shift of the band of the normal progranulin isoform towards an electronically less negatively charged isoform
[1]; 5 pM, LCL of progranulin-antibody positive patients and of healthy controls
  electrical charge of the normal progranulin isoform in IEF: slight shift of the band of the normal progranulin isoform towards an electronically less negatively charged isoform
[1]; 2.5 μM, LCL of a healthy control
  electrical charge of the normal progranulin isoform in IEF: change in the electrical charge of “normal” progranulin appeared as well
[1]; 2.5 μM, LCL of a progranulin-antibody positive patient
  electrical charge of the normal progranulin isoform in IEF: change in the electrical charge
[1]; 5 μM, LCL of a healthy control
  electrical charge of the normal progranulin isoform in IEF: change in the electrical charge of “normal” progranulin appeared as well
[1]; 5 μM, LCL of a progranulin-antibody positive patient
  electrical charge of the normal progranulin isoform in IEF: change in the electrical charge
[1]; inhibitor at 10 nM
  hyperphosphorylated progranulin isoform in IEF: led only to the disappearance of the hyperphosphorylated progranulin isoform
[1]; inhibitor at 15 nM
  hyperphosphorylated progranulin isoform in IEF: wasn't detectable
[1]; inhibitor at 30 nM
  hyperphosphorylated progranulin isoform in IEF: wasn't detectable; also recorded: led only to the disappearance of the hyperphosphorylated progranulin isoform
[1]; inhibitor at 2.5 μM
  hyperphosphorylated progranulin isoform in IEF: disappearance of the hyperphosphorylated progranulin isoform
[1]; inhibitor at 5 μM
  hyperphosphorylated progranulin isoform in IEF: disappearance of the hyperphosphorylated progranulin isoform

## C=C1[C@@H](O)[C@@H]2O[C@]3(CC[C@H](/C=C/[C@@H](C)[C@@H]4CC(C)=C[C@@]5(O[C@H](C[C@@](C)(O)C(=O)O)CC[C@H]5O)O4)O3)CC[C@H]2O[C@@H]1[C@@H](O)C[C@H](C)[C@H]1O[C@@]2(CCCCO2)CC[C@H]1C [okadaic acid]
[2]; 0.1 nM (specific for PP2A), listed as ocadaic acid
  normal and hyperphosphorylated progranulin isoforms in IEF: didn't change the phosphorylation state
[2]; 10 nM (specific for PP1)
  normal and hyperphosphorylated progranulin isoforms in IEF: led to the appearance of the hyperphosphorylated progranulin isoform and the disappearance of the normal progranulin isoform
[2]; 10 nM (specific for PP1), listed as Ocadaic acid
  normal and hyperphosphorylated progranulin isoforms in IEF: led to the appearance of the hyperphosphorylated progranulin isoform
[2]; 500 nM (0.5 μM)
  normal and hyperphosphorylated progranulin isoforms in IEF: led to the appearance of the hyperphosphorylated progranulin isoform and the disappearance of the normal progranulin isoform
[2]; 500 nM (0.5 μM), listed as Ocadaic acid
  normal and hyperphosphorylated progranulin isoforms in IEF: led to the appearance of the hyperphosphorylated progranulin isoform

## TNF-α
[3]
  half-life: about 20 min

## alkaline phosphatase
[4]
  additional (aberrantly charged) progranulin isoform in IEF after pretreatment: disappearance of the additional progranulin isoform; also recorded: had lost the aberrantly charged progranulin isoform

B1: NIPP1: phosphatase inhibitor, at 10 pM specific for PP1 (protein, UniProt Q12972 1-351, looked up)
Nuclear inhibitor of protein …: MAAAANSGSSLPLFDCPTWAGKPPPGLHLDVVKGDKLIEKLIIDEKKYYLFGRNPDLCDFTIDHQSCSRVHAALVYHKHLKRVFLIDLNSTHGTFLGHIRLEPHKPQQIPIDSTVSFGASTRAYTLREKPQTLPSAVKGDEKMGGEDDELKGLLGLPEEETELDNLTEFNTAHNKRISTLTIEEGNLDIQRPKRKRKNSRVTFSEDDEIINPEDVDPSVGRFRNMVQTAVVPVKKKRVEGPGSLGLEESGSRRMQNFAFSGGLYGGLPPTHSEAGSQPHGIHGTALIGGLPMPYPNLAPDVDLTPVVPSAVNMNPAPNPAVYNPEAVNEPKKKKYAKEAWPGKKPTPSLLI
[2]; 10 pM (specific for PP1)
  normal and hyperphosphorylated progranulin isoforms in IEF: led to the appearance of the hyperphosphorylated progranulin isoform and the disappearance of the normal progranulin isoform
